Measured values published in patent US20260027083A1, “USE OF PPAR AGONIST FOR IMPROVEMENT OF ENERGY METABOLISM” (NOVMETAPHARMA CO., LTD., priority 2022, published 2026).

Assays:
[1] = biological target: T1, His-tagged recombinant human PPARβ/δ ligand binding domain (Homo sapiens, UniProt Q03181); assay: CNBr-bead conjugation (pull-down) assay, hPPARβ/δ-LBD; settings: CNBr-coupled drug, positive control GW501516, FIG. 2
T1 construct: made in house; host or cells: E. coli (DE3, Rosetta)
T1 sequence (Q03181 211-439 limits assumed): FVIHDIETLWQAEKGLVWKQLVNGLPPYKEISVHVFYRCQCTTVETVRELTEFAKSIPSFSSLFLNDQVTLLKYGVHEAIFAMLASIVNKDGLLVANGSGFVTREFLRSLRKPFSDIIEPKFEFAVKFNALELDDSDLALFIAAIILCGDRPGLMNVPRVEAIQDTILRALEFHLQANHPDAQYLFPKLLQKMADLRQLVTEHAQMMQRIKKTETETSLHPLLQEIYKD
Method: (§1) A compound of the present invention represented by Chemical Formula 1 was synthesized by DAEJUNG Chemicals & Metals (Gyeonggi-do, Korea) (indicated as ‘D6’ in the drawing). WY14643, GW501516, and rosiglitazone were purchased from Sigma-Aldrich (St. Louis, MO, USA). The compounds were dissolved in dimethyl sulfoxide (DMSO), diluted in a culture solution, and used in the experiment. Cyanogen bromide (CNBr)-activated Sepharose 4B was purchased from Sigma-Aldrich (St. Louis, MO, USA). His-tagged recombinant human PPAR-ligand binding domain (LBD) was expressed in E. coli (DE3, Rosetta) and then purified and used. A His antibody was purchased from Cell Signaling Technology (Danvers, Massachusetts, USA). 3-Isobutyl-1-methylxanthine (IBMX), dexamethasone, bovine pancreatic insulin, and Oil Red O were purchased from Sigma-Aldrich (St. Louis, MO, USA). A PRO-PREP™ Protein Extraction Solution was purchased from iNtRON Biotechnology (iNtRON Biotech., Korea). […]
(§2) 100 mg of CNBr-activated Sepharose 4B was added to an e-tube, and then the beads were activated by rotating with 1 ml of 1 mM HCl for 10 minutes at room temperature. […] Each e-tube was added with the drug and rotated overnight at 4° C., at which time the concentration was measured to be 20 μM. […] The supernatant was completely removed, and the pellet was detected by Western blotting. […]

[2] = biological target: T2, His-tagged recombinant human PPARγ ligand binding domain (Homo sapiens, UniProt P37231); assay: CNBr-bead conjugation (pull-down) assay, hPPARγ-LBD; settings: CNBr-coupled drug, positive control rosiglitazone, FIG. 2
T2 construct: made in house; host or cells: E. coli (DE3, Rosetta)
T2 sequence (P37231 238-503 limits assumed): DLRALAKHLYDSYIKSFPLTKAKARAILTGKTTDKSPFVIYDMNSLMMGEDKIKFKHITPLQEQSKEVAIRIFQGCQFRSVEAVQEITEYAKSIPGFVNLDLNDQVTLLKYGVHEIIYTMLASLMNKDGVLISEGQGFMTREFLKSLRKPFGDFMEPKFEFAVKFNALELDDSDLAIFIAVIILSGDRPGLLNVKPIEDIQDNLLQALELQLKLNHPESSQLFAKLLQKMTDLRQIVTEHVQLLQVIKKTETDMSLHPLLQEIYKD
Method: as §1, §2

Q: `COc1ccc(-c2cc(=O)oc3c(C)c(OC(=O)[C@H](Cc4c[nH]c5ccccc45)NC(=O)OC(C)(C)C)ccc23)cc1` [Chemical Formula 1, [4-(4-methoxyphenyl)-8-methyl-2-oxochromen-7-yl] (2S)-3-(1H-indol-3-yl)-2-[(2-methylpropan-2-yl)oxycarbonylamino]propanoate] was tested. Which “conjugation (binding) to hPPARβ/δ-LBD, Western blotting” value [1] did it give?
A: The value was “as much potently as a PPAR agonist used as a positive control”.

Q: What about the “conjugation (binding) to hPPARγ-LBD, Western blotting” value [2] of the same compound?
A: The value was “as much potently as a PPAR agonist used as a positive control”.
